Data: patent US20220024910A1 (published 2022)

melting point: 278 to 280 °C
SMILES: Cc1c(C(=O)NN2CCS(=O)(=O)CC2)nn(-c2ccc(Cl)cc2Cl)c1-c1ccc(C#CCCC#N)cc1
